Reference: US20250170266A1 (ZYMEWORKS BC INC., priority 2022, published 2025)
Like-named read-outs stand apart in the source and are kept apart here.

Columns and labels:
Format in all cases: cell-based
hTLR7 = molecular target: T1, hTLR7 (Homo sapiens, UniProt Q9NYK1); assay: Reporter Gene Assay (RGA), HEK-Blue hTLR7 reporter cells, SEAP readout; settings: overnight incubation, SEAP absorbance 620 nm
T1 construct: host or cells: HEK-Blue hTLR7 reporter cells (HEK293-derived, own knowledge)
T1 sequence (Q9NYK1 27-1049): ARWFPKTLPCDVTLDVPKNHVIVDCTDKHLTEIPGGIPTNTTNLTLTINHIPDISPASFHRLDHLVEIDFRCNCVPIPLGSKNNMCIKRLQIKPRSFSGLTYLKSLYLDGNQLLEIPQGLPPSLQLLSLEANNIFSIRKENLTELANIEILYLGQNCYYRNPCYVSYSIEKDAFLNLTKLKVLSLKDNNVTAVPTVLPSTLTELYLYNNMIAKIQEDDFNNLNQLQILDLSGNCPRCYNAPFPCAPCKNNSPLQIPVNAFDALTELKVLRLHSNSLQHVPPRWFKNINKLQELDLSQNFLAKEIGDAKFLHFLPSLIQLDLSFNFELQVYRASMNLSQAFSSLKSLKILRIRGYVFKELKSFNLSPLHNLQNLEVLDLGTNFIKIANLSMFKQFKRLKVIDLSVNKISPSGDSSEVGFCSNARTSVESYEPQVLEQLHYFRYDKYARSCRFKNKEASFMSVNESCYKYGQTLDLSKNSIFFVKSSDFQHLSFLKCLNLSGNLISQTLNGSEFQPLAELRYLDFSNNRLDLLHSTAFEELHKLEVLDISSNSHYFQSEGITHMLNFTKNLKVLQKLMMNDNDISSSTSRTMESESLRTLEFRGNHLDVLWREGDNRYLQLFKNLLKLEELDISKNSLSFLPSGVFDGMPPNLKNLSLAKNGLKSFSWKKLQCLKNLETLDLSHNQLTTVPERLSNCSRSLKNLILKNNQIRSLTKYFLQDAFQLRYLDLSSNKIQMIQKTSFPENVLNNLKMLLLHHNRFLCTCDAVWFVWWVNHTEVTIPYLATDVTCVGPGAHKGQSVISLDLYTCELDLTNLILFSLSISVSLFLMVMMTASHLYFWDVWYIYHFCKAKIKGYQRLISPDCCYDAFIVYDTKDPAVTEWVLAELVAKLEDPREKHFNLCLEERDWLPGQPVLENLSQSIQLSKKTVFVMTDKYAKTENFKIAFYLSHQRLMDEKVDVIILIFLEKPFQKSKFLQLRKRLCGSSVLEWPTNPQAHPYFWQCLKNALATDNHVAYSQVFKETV
In short: (§1)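 HEK-Blue reporter cells expressing human or mouse TLR7 (1.5×10^4 cells) were treated with an 11-point, 4-fold compound titration from 15 pM in HEK-Blue Detection medium. Incubation was overnight at 37° C with 5% CO2. Secreted embryonic alkaline phosphatase was read as absorbance at 620 nm.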

mTLR7 = molecular target: T2, mTLR7 (Mus musculus, UniProt P58681); assay: Reporter Gene Assay (RGA), HEK-Blue mTLR7 reporter cells, SEAP readout; settings: overnight incubation, SEAP absorbance 620 nm
T2 construct: host or cells: HEK-Blue mTLR7 reporter cells (HEK293-derived, own knowledge)
T2 sequence (P58681 27-1050): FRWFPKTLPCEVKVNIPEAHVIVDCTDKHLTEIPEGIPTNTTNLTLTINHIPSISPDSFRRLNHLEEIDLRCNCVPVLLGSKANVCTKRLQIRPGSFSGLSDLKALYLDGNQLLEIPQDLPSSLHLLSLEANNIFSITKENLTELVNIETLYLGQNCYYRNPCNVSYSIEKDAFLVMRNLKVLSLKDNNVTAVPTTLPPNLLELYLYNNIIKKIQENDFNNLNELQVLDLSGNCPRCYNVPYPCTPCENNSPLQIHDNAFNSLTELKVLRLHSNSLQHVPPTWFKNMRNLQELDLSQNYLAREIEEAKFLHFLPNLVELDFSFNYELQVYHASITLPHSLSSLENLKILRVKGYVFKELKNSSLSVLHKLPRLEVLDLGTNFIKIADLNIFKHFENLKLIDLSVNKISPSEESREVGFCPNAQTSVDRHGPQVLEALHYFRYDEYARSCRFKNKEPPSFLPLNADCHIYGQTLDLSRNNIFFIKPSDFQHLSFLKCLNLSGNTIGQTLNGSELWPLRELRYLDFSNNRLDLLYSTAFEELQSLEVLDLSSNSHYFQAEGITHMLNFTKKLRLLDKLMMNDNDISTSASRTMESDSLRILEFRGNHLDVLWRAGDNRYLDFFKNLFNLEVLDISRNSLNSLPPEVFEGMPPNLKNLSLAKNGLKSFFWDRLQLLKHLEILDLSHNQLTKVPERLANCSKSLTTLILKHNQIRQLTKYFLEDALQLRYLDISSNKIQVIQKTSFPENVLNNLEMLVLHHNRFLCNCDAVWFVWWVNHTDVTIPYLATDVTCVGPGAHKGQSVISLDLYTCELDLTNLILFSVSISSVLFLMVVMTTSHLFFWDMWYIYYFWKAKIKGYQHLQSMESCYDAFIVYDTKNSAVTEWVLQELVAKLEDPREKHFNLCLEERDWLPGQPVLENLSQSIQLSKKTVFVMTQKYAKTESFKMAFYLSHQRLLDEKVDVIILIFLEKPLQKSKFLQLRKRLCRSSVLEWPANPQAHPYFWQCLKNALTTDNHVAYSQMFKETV
In short: as §1

[1] = test system: Human peripheral blood mononuclear cells (PBMCs); assay: Human PBMC Assay, cytokine release (HTRF); settings: PBMC, 24 hours
In short: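 Cryopreserved human PBMCs, rested overnight with 10 ng/ml hIL3, then 300,000 cells/well treated 24 h at 37° C with compound (4-fold, 11-point titration from 15 μM) in RPMI+10% FBS. Supernatant hIL6, hTNFα and hIFNα measured by HTRF; growth medium as negative control.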

Mouse splenocytes = assay: Mouse Splenocyte Assay, cytokine release (HTRF); settings: Splenocyte, 24 hours, mIL6 in supernatant, read-out: Splenocyte IL6 EC50
Description: Mouse splenocytes were isolated from fresh mouse spleens. Briefly, spleens were harvested from female balb/c nude mice and transferred to a 70 μm cell strainer. The cell strainer was subsequently placed in a 6-well suspension culture plate containing 5 mL media (RPMI+10% FBS). The spleens were crushed against the cell strainer using the flat end of a 10 mL syringe plunger and the cell strainer was washed with 5 mL media. The cell strainer was discarded, and the cell suspension was washed in PBS. Red blood cells were removed using PharmaLyse (BD). The cell suspension was washed in media, resuspended in CryoStor® CS10 ([…]) and frozen. On assay day, mouse splenocytes were thawed in warm assay buffer (RPMI+10% FBS). Cells were spun down and resuspended in fresh assay buffer. 100,000 cells were added to each well of plates containing test compound. For test compound preparation, each compound was initially diluted to 1 mM in DMSO and further diluted in assay buffer. A 4-fold 11-point titration starting from 15 μM was performed. Cells were incubated with test compound at 37° C.+5% CO2 for 24 hours before supernatant was harvested. Murine IL6 (mIL6) and murine TNFα (mTNFα) were quantified in the supernatant using homogeneous time resolved fluorescence (Cisbio).
Each assay included a positive control compound (referred to herein as “benchmark,” see, e.g., TABLE 3 below, and taken from International Patent Publication No. WO2017/072662, structure shown below) and a negative control (growth medium). […] The structure of the benchmark compound from International Patent Publication No. WO 2017/072662 is as follows: […]

[2] = hIFNα in supernatant, EC50 values approximated and divided into groups, read-out: PBMC IFNa EC50
[3] = hIL6 in supernatant, read-out: PBMC IL6 EC50

Structure (SMILES) | EC50 (hTLR7) [nM] | EC50 (mTLR7) [nM] | EC50 [1, 2] [nM] | EC50 (Mouse splenocytes) [nM] | EC50 [1, 3] [nM]
CCCCOc1nc(N)c2nc(O)n(Cc3ccc(CCCN4CCC(N)CC4)cc3OC)c2n1 [Compound 172, 6-amino-9-(4-(3-(4-aminopiperidin-1-yl)propyl)-2-methoxybenzyl)-2-butoxy-9H-purin-8-ol] | < 0.1 | < 0.1 | > 10 | 2.1 | –
CCOc1nc(N)c2nc(O)n(Cc3ccc(CNCCCC[C@H](N)C(=O)O)cc3OC)c2n1 [Compound 114, N^6-(4-((6-amino-2-ethoxy-8-hydroxy-9H-purin-9-yl)methyl)-3-methoxybenzyl)-L-lysine] | 261 | 1520 | > 10 | 901 | 1750
CCCCCNc1nc(N)c2nc(O)n(Cc3ccc(CN4CCNCC4)cc3)c2n1 [Compound 187, 6-amino-2-(pentylamino)-9-(4-(piperazin-1-ylmethyl)benzyl)-9H-purin-8-ol] | 94 | 9 | 0.1 to 1 | 131 | 9
CCOc1nc(N)c2nc(O)n(Cc3ccc(CNC4CC(F)(F)C4)cc3OC)c2n1 [Compound 109, 6-amino-9-(4-(((3,3-difluorocyclobutyl)amino)methyl)-2-methoxybenzyl)-2-ethoxy-9H-purin-8-ol] | 56 | 13.1 | 1 to 10 | 166 | 456
CCOc1nc(N)c2nc(O)n(Cc3ccc(CN4CCN(CCNC(=O)CC(SC[C@@H](N)C(=O)O)C(=O)O)CC4)cc3OC)c2n1 (stereo partly drawn) [Compound 113, 2-(((S)-2-amino-2-carboxyethyl)thio)-4-((2-(4-(4-((6-amino-2-ethoxy-8-hydroxy-9H-purin-9-yl)methyl)-3-methoxybenzyl)piperazin-1-yl)ethyl)amino)-4-oxobutanoic Acid] | 187 | 662 | > 10 | 1180 | 1360
CCCCOc1nc(N)c2nc(O)n(Cc3ccc(CNC4CCC4)cc3OC)c2n1 [Compound 164, 6-amino-2-butoxy-9-(4-((cyclobutylamino)methyl)-2-methoxybenzyl)-9H-purin-8-ol] | < 0.1 | < 0.1 | < 0.1 | 0.3 | 2540
CCOc1nc(N)c2nc(O)n(Cc3ccc(CNCCC(=O)N[C@@H](Cc4c[nH]cn4)C(=O)O)cc3OC)c2n1 [Compound 116, (3-((4-((6-amino-2-ethoxy-8-hydroxy-9H-purin-9-yl)methyl)-3-methoxybenzyl)-amino)-propanoyl)-L-histidine] | 184 | 1020 | > 10 | 2180 | 3080
CCOc1nc(N)c2nc(O)n(Cc3ccc(CNCc4ccc(CNCc5ccc(CN)cc5)cc4)cc3OC)c2n1 [Compound 146, 6-amino-9-(4-(((4-(((4-(aminomethyl)benzyl)amino)methyl)benzyl)amino)-methyl)-2-methoxybenzyl)-2-ethoxy-9H-purin-8-ol] | 5.8 | 28.7 | < 0.1 | 12.9 | 16.7
CCCCOc1nc(N)c2nc(O)n(Cc3ccc(N4CCC5(CCNCC5)CC4)cc3OC)c2n1 [Compound 171, 6-amino-2-butoxy-9-(2-methoxy-4-(3,9-diazaspiro[5.5]undecan-3-yl)benzyl)-9H-purin-8-ol] | < 0.1 | 1.1 | > 10 | 8.9 | 1550
CCOc1nc(N)c2nc(O)n(Cc3ccc(CNCCCCCC(=O)O)cc3OC)c2n1 [Compound 115, 6-((4-((6-amino-2-ethoxy-8-hydroxy-9H-purin-9-yl)methyl)-3-methoxybenzyl)-amino)hexanoic Acid] | 277 | 1600 | > 10 | 3240 | 2810
CCCCOc1nc(N)c2nc(O)n(Cc3ccc(CN4CCC5(CCNCC5)CC4)cc3OC)c2n1 [Compound 157, 9-(4-((3,9-diazaspiro[5.5]undecan-3-yl)methyl)-2-methoxybenzyl)-6-amino-2-butoxy-9H-purin-8-ol] | 0.9 | 3.7 | > 10 | 9.4 | 473
CCOc1nc(N)c2nc(O)n(Cc3ccc(CNCc4ccc(CN5CCNCC5)cc4)cc3OC)c2n1 [Compound 145, 6-amino-2-ethoxy-9-(2-methoxy-4-(((4-(piperazin-1-ylmethyl)benzyl)amino)-methyl)benzyl)-9H-purin-8-ol] | 69 | 142 | – | 338 | 126
CCCCCNc1nc(N)c2nc(O)n(Cc3ccc(CN(CC)CC)cc3)c2n1 [Compound 185, 6-amino-9-(4-((diethylamino)methyl)benzyl)-2-(pentylamino)-9H-purin-8-ol] | 10 | 1 | 1 to 10 | 20.4 | 12.6
